Source: US20150105252A1, “SUBSTITUTED PYRAZOLES AS HERBICIDES” (E I DU PONT DE NEMOURS AND COMPANY, priority 2013, published 2015)

How the values were obtained:
Settings in all cases: scale 0 to 100
radish, wild = assay: Test D preemergence; assay type: in vivo, Raphanus raphanistrum
In short: (§1)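 Visual 0–100 control ratings at 14–21 days in a controlled growth environment. Application preemergence onto silt loam or postemergence onto 2–18 cm seedlings, using a non-phytotoxic solvent formulation with surfactant.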

canarygrass = assay: Test D preemergence; assay type: in vivo, Phalaris minor
From the text: (§2) Seeds of plant species selected from bluegrass (annual bluegrass, Poa annua), blackgrass (Alopecurus myosuroides), canarygrass (littleseed canarygrass, Phalaris minor), chickweed (common chickweed, Stellaria media), galium (catchweed bedstraw, Galium aparine), bromegrass, downy (downy bromegrass, Bromus tectorum), field poppy (Papaver rhoeas), field violet (Viola arvensis), foxtail, green (green foxtail, Setaria viridis), deadnettle (henbit deadnettle, Lamium amplexicaule), ryegrass, Italian (Italian ryegrass, Lolium multiflorum), kochia (Kochia scoparia), lambsquarters (Chenopodium album), oilseed rape (Brassica napus), pigweed (redroot pigweed, Amaranthus retroflexus), chamomile (scentless chamomile, Matricaria inodora), speedwell (bird's-eye speedwell, Veronica persica), barley, spring (spring barley, Hordeum vulgare), wheat, spring (spring wheat, Triticum aestivum), buckwheat, wild (wild buckwheat, Polygonum convolvulus), mustard, wild (wild mustard, Sinapis arvensis), oat, wild (wild oat, Avena fatua), radish, wild (wild radish, Raphanus raphanistrum), windgrass (Apera spica-venti), Russian thistle (Salsola kali), barley, winter (winter barley, Hordeum vulgare), and wheat, winter (winter wheat, Triticum aestivum) were planted into a silt loam soil and treated preemergence with test chemicals formulated in a non-phytotoxic solvent mixture which included a surfactant.
(§3) At the same time, these species were planted in pots containing Redi-Earth® planting medium (Scotts Company, 14111 Scottslawn Road, Marysville, Ohio 43041) comprising spaghnum peat moss, vermiculite, wetting agent and starter nutrients and treated with postemergence applications of the test chemicals formulated in the same manner. Plants ranged in height from 2 to 18 cm (1- to 4-leaf stage). Treated plants and controls were maintained in a controlled growth environment for 14 to 21 days after which time all species were compared to controls and visually evaluated. Plant response ratings, summarized in Table D, are based on a scale of 0 to 100 where 0 is no effect and 100 is complete control. A dash (-) response means no test result.

lambsquarters = assay: Test D postemergence; assay type: in vivo, Chenopodium album
From the text: as §2, §3

field poppy = assay: Test D preemergence; assay type: in vivo, Papaver rhoeas
From the text: as §2, §3

pigweed = assay: Test D preemergence; assay type: in vivo, Amaranthus retroflexus
In short: as §1

field violet = assay: Test D postemergence; assay type: in vivo, Viola arvensis
From the text: as §2, §3

wheat, winter = assay: Test D preemergence; assay type: in vivo, Triticum aestivum
From the text: as §2, §3

wheat, spring = assay: Test D preemergence; assay type: in vivo, Triticum aestivum
From the text: as §2, §3

barley, spring = assay: Test D preemergence; assay type: in vivo, Hordeum vulgare
In short: as §1

barley, winter = assay: Test D preemergence; assay type: in vivo, Hordeum vulgare
In short: as §1

SMILES: CCCc1cc(C(=O)NCC(F)(F)F)nn1Cc1cc(C(F)(F)F)nn1C [Compound 138]
- Plant response rating, Radish, Wild (radish, wild; 62 g ai/ha): 100
- Plant response rating, Radish, Wild (radish, wild; 125 g ai/ha): 100
- Plant response rating, Radish, Wild (radish, wild; 250 g ai/ha): 100
- Plant response rating, Canarygrass (canarygrass; 31 g ai/ha): 15
- Plant response rating, Canarygrass (canarygrass; 62 g ai/ha): 70
- Plant response rating, Canarygrass (canarygrass; 125 g ai/ha): 100
- Plant response rating, Canarygrass (canarygrass; 250 g ai/ha): 100
- Lambsquarters plant response rating (lambsquarters; Postemergence, 31 g ai/ha): 80
- Lambsquarters plant response rating (lambsquarters; Postemergence, 125 g ai/ha): 80
- Lambsquarters plant response rating (lambsquarters; Postemergence, 250 g ai/ha): 80
- Lambsquarters plant response rating (lambsquarters; postemergence, 62 g ai/ha): 80
- Plant response rating, Field Poppy (field poppy; 62 g ai/ha): 100
- Plant response rating, Field Poppy (field poppy; 125 g ai/ha): 100
- Plant response rating, Field Poppy (field poppy; 250 g ai/ha): 100
- Plant response rating, Pigweed (pigweed; 62 g ai/ha): 100
- Plant response rating, Pigweed (pigweed; 125 g ai/ha): 100
- Plant response rating, Pigweed (pigweed; 250 g ai/ha): 100
- Field Violet plant response rating (field violet; Postemergence, 31 g ai/ha): 80
- Field Violet plant response rating (field violet; Postemergence, 125 g ai/ha): 75
- Field Violet plant response rating (field violet; Postemergence, 250 g ai/ha): 95
- Field Violet plant response rating (field violet; postemergence, 62 g ai/ha): 80
- Plant response rating, Wheat, Winter (wheat, winter; 62 g ai/ha): 30
- Plant response rating, Wheat, Winter (wheat, winter; 125 g ai/ha): 40
- Plant response rating, Wheat, Winter (wheat, winter; 250 g ai/ha): 60
- Plant response rating, Wheat, Spring (wheat, spring; 62 g ai/ha): 10
- Plant response rating, Wheat, Spring (wheat, spring; 125 g ai/ha): 35
- Plant response rating, Wheat, Spring (wheat, spring; 250 g ai/ha): 50
- Plant response rating, Barley, Spring (barley, spring; 31 g ai/ha): 0
- Plant response rating, Barley, Spring (barley, spring; 62 g ai/ha): 5
- Plant response rating, Barley, Spring (barley, spring; 125 g ai/ha): 40
- Plant response rating, Barley, Spring (barley, spring; 250 g ai/ha): 75
- Plant response rating, Barley, Winter (barley, winter; 31 g ai/ha): 5
- Plant response rating, Barley, Winter (barley, winter; 62 g ai/ha): 35
- Plant response rating, Barley, Winter (barley, winter; 125 g ai/ha): 60
- Plant response rating, Barley, Winter (barley, winter; 250 g ai/ha): 70

SMILES: CCOc1cc(C(=O)NC2CC2)nn1Cc1ccnc(C(F)(F)F)c1 [Compound 189]
- Plant response rating, Radish, Wild (radish, wild; 62 g ai/ha): 70
- Plant response rating, Radish, Wild (radish, wild; 125 g ai/ha): 100
- Plant response rating, Radish, Wild (radish, wild; 250 g ai/ha): 100
- Plant response rating, Canarygrass (canarygrass; 31 g ai/ha): 10
- Plant response rating, Canarygrass (canarygrass; 62 g ai/ha): 50
- Plant response rating, Canarygrass (canarygrass; 125 g ai/ha): 85
- Plant response rating, Canarygrass (canarygrass; 250 g ai/ha): 100
- Lambsquarters plant response rating (lambsquarters; Postemergence, 31 g ai/ha): 75
- Lambsquarters plant response rating (lambsquarters; Postemergence, 125 g ai/ha): 80
- Lambsquarters plant response rating (lambsquarters; Postemergence, 250 g ai/ha): 90
- Lambsquarters plant response rating (lambsquarters; postemergence, 62 g ai/ha): 75
- Plant response rating, Field Poppy (field poppy; 62 g ai/ha): 100
- Plant response rating, Field Poppy (field poppy; 125 g ai/ha): 100
- Plant response rating, Field Poppy (field poppy; 250 g ai/ha): 100
- Plant response rating, Pigweed (pigweed; 62 g ai/ha): 95
- Plant response rating, Pigweed (pigweed; 125 g ai/ha): 100
- Plant response rating, Pigweed (pigweed; 250 g ai/ha): 100
- Field Violet plant response rating (field violet; Postemergence, 31 g ai/ha): 60
- Field Violet plant response rating (field violet; Postemergence, 125 g ai/ha): 100
- Field Violet plant response rating (field violet; Postemergence, 250 g ai/ha): 100
- Field Violet plant response rating (field violet; postemergence, 62 g ai/ha): 60
- Plant response rating, Wheat, Winter (wheat, winter; 62 g ai/ha): 15
- Plant response rating, Wheat, Winter (wheat, winter; 125 g ai/ha): 65
- Plant response rating, Wheat, Winter (wheat, winter; 250 g ai/ha): 85
- Plant response rating, Wheat, Spring (wheat, spring; 62 g ai/ha): 10
- Plant response rating, Wheat, Spring (wheat, spring; 125 g ai/ha): 40
- Plant response rating, Wheat, Spring (wheat, spring; 250 g ai/ha): 80
- Plant response rating, Barley, Spring (barley, spring; 31 g ai/ha): 0
- Plant response rating, Barley, Spring (barley, spring; 62 g ai/ha): 40
- Plant response rating, Barley, Spring (barley, spring; 125 g ai/ha): 70
- Plant response rating, Barley, Spring (barley, spring; 250 g ai/ha): 85
- Plant response rating, Barley, Winter (barley, winter; 31 g ai/ha): 10
- Plant response rating, Barley, Winter (barley, winter; 62 g ai/ha): 35
- Plant response rating, Barley, Winter (barley, winter; 125 g ai/ha): 60
- Plant response rating, Barley, Winter (barley, winter; 250 g ai/ha): 65
